Experimental data taken from patent US20260240869A1, “ANTIPSEUDOMONAL FUSIDIC ACID COMPOUNDS” (priority 2022, published 2026).
≈ marks a conversion by molar mass, not a printed value. Read-outs that look alike come from different tables or passages of the source.

Assays:
[1] = tested on: P. aeruginosa PAO1; assay: MIC, CLSI broth microdilution, P. aeruginosa PAO1; assay type: cell-based, Pseudomonas aeruginosa; conditions: for MIC: Pseudomonas aeruginosa
How it was run: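 Susceptibility is determined by the CLSI microdilution broth method. Cultures grow in cation-adjusted Mueller-Hinton or LB (Lennox) medium, with each test run in biological triplicate.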

[2] = tested on: E. coli MG1655; assay: MIC, E. coli MG1655; assay type: cell-based; conditions: Escherichia coli, MG1655
Experimental: (§1) Antimicrobial Susceptibility Tests. Susceptibility testing was performed in biological triplicate, using the microdilution broth method as outlined by the Clinical and Laboratory Standards Institute. Bacteria were cultured with cation-adjusted Meuller-Hinton broth (Sigma-Aldrich; catalogue number: 90922) or Luria-Bertani (LB) broth (Lennox) in round-bottom 96-well plates (Corning; catalogue number: 3788).

[3] = tested on: S. aureus ATCC 29213; assay: MIC, S. aureus ATCC 29213; assay type: cell-based; conditions: Staphylococcus aureus, ATCC29213; Table 9; read-out: MIC S. aureus ATCC 29213
Experimental: as §1

[4] = tested on: clinical isolates of P. aeruginosa; assay: MIC against panel of clinical isolates of P. aeruginosa; assay type: cell-based, Pseudomonas aeruginosa; conditions: for MIC: Pseudomonas aeruginosa, read-out: MIC
Experimental: as §1

[5] = tested on: hyperporinated P. aeruginosa A6 efflux deficient strain (PAO1 pore-A6); assay: microbe, parasite or virus in culture; assay type: cell-based; conditions: Pseudomonas aeruginosa, PAO1, read-out: MIC against PAO1 pore-A6
Experimental: as §1

CC(=O)O[C@H]1C[C@@]2(C)[C@@H](C[C@@H](O)[C@H]3[C@@]4(C)CC[C@@H](O)[C@@H](C)[C@@H]4CC[C@@]32C)/C1=C(\CCC=C(C)C)C(=O)O [FA, Fusidic acid]
MIC P. aeruginosa PAO1, CAMH ([1]; CAMH (Table 10)): 1020 µg/mL (≈ 1980 µM) | shift in MIC on co-treatment with 5 mM MgCl2 ([1]; P. aeruginosa PAO1): no change in antibacterial activity | MIC ([1]; PAO1, CLSI (Table 8), read-out: P. aeruginosa PAO1 MIC): 1020 µg/mL (≈ 1980 µM) | MIC ([1]; PAO1, Table 9, read-out: MIC P. aeruginosa PAO1): 1020 µg/mL (≈ 1980 µM) | MIC ([1]; Reference strain PAO1 (Table 11), read-out: MIC): 1020 µg/mL (≈ 1980 µM) | MIC ([1]; WT P. aeruginosa PAO1, MH broth (Table 1), read-out: PAO1 MIC): > 512 µg/mL | MIC P. aeruginosa PAO1, 5 mM MgCl2/CAMH ([1]; co-treatment 5 mM MgCl2 in CAMH (Table 10)): 1024 | PAO1 + PMBN MIC ([1]; co-treatment of 8 μg/mL of PMBN, MH broth): 4 µg/mL | MIC versus PAO1 ([1]; text b125, Chart 6): 1024 μg/mLh | MIC ([2]; CLSI (Table 8), read-out: E. coli MG1655 MIC): 512 µg/mL (≈ 991 µM) | MIC ([2]; Table 9, read-out: MIC E. coli MG1655): 512 µg/mL (≈ 991 µM) | MIC [3]: 0.125 µg/mL (≈ 0.242 µM) | activity (MIC) against a panel of 75 clinical isolates of P. aeruginosa [4]: essentially no antibacterial activity | MIC ([4]; AR Bank Isolate # 0054): > 1020 µg/mL | MIC ([4]; AR Bank Isolate # 0064): > 1020 µg/mL | MIC ([4]; AR Bank Isolate # 0090): > 1020 µg/mL | MIC ([4]; AR Bank Isolate # 0092): > 1020 µg/mL | MIC ([4]; AR Bank Isolate # 0095): > 1020 µg/mL | MIC ([4]; AR Bank Isolate # 0100): > 1020 µg/mL | MIC ([4]; AR Bank Isolate # 0103): > 1020 µg/mL | MIC ([4]; AR Bank Isolate # 0110): > 1020 µg/mL | MIC ([4]; AR Bank Isolate # 0229): > 1020 µg/mL | MIC ([4]; AR Bank Isolate # 0230): > 1020 µg/mL | MIC ([4]; AR Bank Isolate # 0231): > 1020 µg/mL | MIC ([4]; AR Bank Isolate # 0232): > 1020 µg/mL | MIC ([4]; AR Bank Isolate # 0233): > 1020 µg/mL | MIC ([4]; AR Bank Isolate # 0234): 1020 µg/mL (≈ 1980 µM) | MIC ([4]; AR Bank Isolate # 0235): > 1020 µg/mL | MIC ([4]; AR Bank Isolate # 0236): > 1020 µg/mL | MIC ([4]; AR Bank Isolate # 0237): > 1020 µg/mL | MIC ([4]; AR Bank Isolate # 0239): > 1020 µg/mL | MIC ([4]; AR Bank Isolate # 0240): > 1020 µg/mL | MIC ([4]; AR Bank Isolate # 0241): > 1020 µg/mL | MIC ([4]; AR Bank Isolate # 0242): > 1020 µg/mL | MIC ([4]; AR Bank Isolate # 0243): > 1020 µg/mL | MIC ([4]; AR Bank Isolate # 0244): > 1020 µg/mL | MIC ([4]; AR Bank Isolate # 0245): > 1020 µg/mL | MIC ([4]; AR Bank Isolate # 0246): 1020 µg/mL (≈ 1980 µM) | MIC ([4]; AR Bank Isolate # 0248): > 1020 µg/mL | MIC ([4]; AR Bank Isolate # 0250): > 1020 µg/mL | MIC ([4]; AR Bank Isolate # 0252): > 1020 µg/mL | MIC ([4]; AR Bank Isolate # 0254): > 1020 µg/mL | MIC ([4]; AR Bank Isolate # 0265): > 1020 µg/mL | MIC ([4]; AR Bank Isolate # 0763): > 1020 µg/mL | MIC ([4]; AR Bank Isolate # 0767): > 1020 µg/mL | MIC ([4]; AR Bank Isolate # 0769): > 1020 µg/mL | MIC ([4]; AR Bank Isolate # 0772): > 1020 µg/mL | MIC ([4]; Carle Isolate ID # Cl-02): 1020 µg/mL (≈ 1980 µM) | MIC ([4]; Carle Isolate ID # Cl-03): 1020 µg/mL (≈ 1980 µM) | MIC ([4]; Carle Isolate ID # Cl-04): > 1020 µg/mL | MIC ([4]; Carle Isolate ID # Cl-05): > 1020 µg/mL | MIC ([4]; Carle Isolate ID # Cl-06): > 1020 µg/mL | MIC ([4]; Carle Isolate ID # Cl-07): > 1020 µg/mL | MIC ([4]; Carle Isolate ID # Cl-08): > 1020 µg/mL | MIC ([4]; Carle Isolate ID # Cl-09): > 1020 µg/mL | MIC ([4]; Carle Isolate ID # Cl-10): > 1020 µg/mL | MIC ([4]; Carle Isolate ID # Cl-11): > 1020 µg/mL | MIC ([4]; Carle Isolate ID # Cl-12): > 1020 µg/mL | MIC ([4]; Carle Isolate ID # Cl-13): > 1020 µg/mL | MIC ([4]; Carle Isolate ID # Cl-14): > 1020 µg/mL | MIC ([4]; Carle Isolate ID # Cl-15): > 1020 µg/mL | MIC ([4]; Carle Isolate ID # Cl-19): > 1020 µg/mL | MIC ([4]; Cubist Strain ID # 996): > 1020 µg/mL | MIC ([4]; Cubist Strain ID # 997): > 1020 µg/mL | MIC ([4]; Cubist Strain ID # 998): 1020 µg/mL (≈ 1980 µM) | MIC ([4]; Cubist Strain ID # 999): > 1020 µg/mL | MIC ([4]; Cubist Strain ID # 1000): > 1020 µg/mL | MIC ([4]; Cubist Strain ID # 1001): > 1020 µg/mL | MIC ([4]; Cubist Strain ID # 1174): > 1020 µg/mL | MIC ([4]; Cubist Strain ID # 1175): > 1020 µg/mL | MIC ([4]; Cubist Strain ID # 1176): > 1020 µg/mL | MIC ([4]; Cubist Strain ID # 1280): > 1020 µg/mL | MIC ([4]; Cubist Strain ID # 1282): > 1020 µg/mL | MIC ([4]; Cubist Strain ID # 1283): > 1020 µg/mL | MIC ([4]; Cubist Strain ID # 1284): > 1020 µg/mL | MIC ([4]; Cubist Strain ID # 1586): > 1020 µg/mL | MIC ([4]; Cubist Strain ID # 1590): > 1020 µg/mL | MIC ([4]; Cubist Strain ID # 1591): > 1020 µg/mL | MIC ([4]; Cubist Strain ID # 1592): > 1020 µg/mL | MIC ([4]; Cubist Strain ID # 1905): > 1020 µg/mL | MIC ([4]; Cubist Strain ID # 1906): > 1020 µg/mL | MIC ([4]; Cubist Strain ID # 2242): > 1020 µg/mL | MIC ([4]; Cubist Strain ID # 2243): > 1020 µg/mL | MIC ([4]; Cubist Strain ID # 2244): > 1020 µg/mL | MIC ([4]; Other strains (ref.) 1113): > 1020 µg/mL | MIC ([4]; Other strains (ref.) 1727): > 1020 µg/mL | MIC [5]: 4 µg/mL (≈ 7.74 µM)
